# “Also recorded” adds a separate entry of the source.
# Key:
# meningiomas = assay: PiB PET/CT imaging of meningiomas in patients; format: in vivo, human
# From the text: (§1) An Alzheimer's imaging database of two hundred forty-one patients was reviewed. […] All patients had been imaged by at least one MRI, as well as by FDG-PET/CT and PET/CT using the compound of formula (V). MRI reports of all patients were reviewed for possible meningiomas and other tumors. […] The diagnostic confidence of the radiologists interpreting the studies varied slightly, depending on factors such as tumor location and previous imaging. […] Tumors smaller than 7 millimeters are generally considered too small to be evaluated by PET or PET/CT. This is an excepted limitation of PET or PET/CT as a modality. […] None of the meningiomas in the series would be classified as atypical or aggressive based on MRI or CT imaging. One presumed extracranial schwannoma was seen, showing mild uptake on FDG-PET/CT, but no uptake on PET/CT using the compound of formula (V).
# (§2) The radiologic interpretations of MRI, CT and FDG PET/CT scans from a population of 834 people who participated in the population-based Mayo Clinic Study of Aging (MCSA) from March 2006 through September 2011 were reviewed for the presence of tumors or other brain lesions. (See, Kantarci K, Lowe V, Przybelski S A, et al., “Magnetic resonance spectroscopy, {beta}-amyloid load, and cognition in a population-based sample of cognitively normal older adults”, Neurology 2011; 77:951-8; and Roberts R O, Geda Y E, Knopman D S, et al., “The Mayo Clinic Study of Aging: design and sampling, participation, baseline measures and sample characteristics”, Neuroepidemiology 2008; 30:58-69.) Participants were randomly selected for recruitment in the MCSA from a population of older adult residents of Olmsted County, Minn., USA. Those with neurological, psychological or systemic illnesses were not excluded. Individuals with dementia, or those unable to be imaged for medical reasons were excluded. All patients were imaged with C11-PiB PET/CT, F18-FDG PET/CT and non-contrast MRI at least once as part of the study. Any additional patient imaging and clinical history was then reviewed.
# (§3) Tumors found in any of the subjects were then categorized as possible meningiomas or non-meningiomas based on the reading of the reporting neuroradiologist. Possible meningiomas were further reviewed as a group. A more strict set of criteria were applied to select a subset of the possible meningiomas that were designated “high-likelihood meningiomas” for further analysis and were defined by (1) tumors that were confirmed to be enhancing on diagnostic MRI (obtained separately for clinical purposes) and (2) tumors that had greater than two years of follow-up imaging confirming no growth or slow growth (1-2 mm per year). When the lead diagnosis of the identified tumor was metastasis, the diagnosis was confirmed by biopsy or autopsy. All tumors smaller than 5 mm thick were excluded, given they fall below the generally accepted lower limits of PET/CT resolution.
# (§4) PET imaging was performed as part of the Mayo Clinic Study of Aging as previously described. (See Kantarci K, Lowe V, Przybelski S A, et al., “Magnetic resonance spectroscopy, {beta}-amyloid load, and cognition in a population-based sample of cognitively normal older adults”, Neurology 2011; 77:951-8.) PiB PET/CT, then FDG PET/CT were performed on the same day. PET/CT imaging was performed on a 690XT or DRX PET/CT tomograph (GE Healthcare). The PET sinograms were reconstructed using a fully-3D OSEM algorithm into a 30 cm field of view; the pixel size was 1.2 mm and the slice thickness was 3.27 mm (DRX) or 1.96 mm (690XT). CT imaging was obtained immediately prior to PET acquisition and used for attenuation correction. Cerebral PiB retention, a marker of amyloid deposition, was measured as previously described. (See Kantarci K, Lowe V, Przybelski S A, et al. “Magnetic resonance spectroscopy, {beta}-amyloid load, and cognition in a population-based sample of cognitively normal older adults”, Neurology 2011; 77:951-8.) […]
# non-meningioma tumors = assay: PiB PET/CT imaging of non-meningioma tumors and lesions in patients; format: in vivo, human
# From the text: as §1, §2, §3, §4
# [1] = system: meningioma tissue sections; assay: Fluorescent tissue staining of meningioma sections; format: binding, human; settings: for fluorescent staining of meningioma tissue: 100 nM stain, 5 μm sections, fluorescent microscopy
# From the text: The Department of Pathology, Mayo Clinic Rochester Tumor Tissue Registry, contains tumor samples procured by autopsy and surgery. Meningiomas, brain metastases and other tumors were identified by searching CoPath, a Mayo Clinic electronic pathology database of tumors collected since 1982. Tumor type was confirmed by viewing H&E stained slides under a light microscope.
# Fresh cut 5 μm thick sections were used. Each staining run included normal brain and Alzheimer diseased brain as controls. Fluorescent tissue staining and microscopy was performed similar to methods previously described at Ikonomovic M D, Klunk W E, Abrahamson E E, et al., “Post-mortem correlates of in vivo PiB-PET amyloid imaging in a typical case of Alzheimer's disease”, Brain: A Journal Of Neurology 2008; 131:1630-45. Meningioma and other brain tumor sections were stained with 100 nM CN-PiB, 100 nM of unlabeled PiB or with saline alone as a negative control. The staining protocol was as follows: deparaffinization and rehydration, 0.25% KMnO4 incubation, water wash, 1% K2S2O5/1% Oxalic Acid incubation, water wash, PBS wash, 6-CN-PiB/PiB/saline incubation, PBS wash, NaCl, K2HPO4, and KH2PO4 incubation, water wash, mount coverslip, and storage at 4° C. in the dark until imaged. Slides were imaged within five days of staining. Immunohistochemical staining of meningiomas for beta amyloid protein was performed using NCL-B-Amyloid mouse anti-human antibody per standard clinical protocol.
# Tissue stain images were obtained on a Zeiss 510 confocal microscope with excitation at 405 nm, a 420-480 bandpass filter, and the laser set at 15% power.
# Images were obtained with a C-Apochromat 40×/1.2 W lens.
# [2] = 16 high-likelihood meningiomas in 15 patients, C11-PiB PET/CT
smiles,measurement,setting,value
"[11CH3]Nc1ccc(-c2nc3ccc(O)cc3s2)cc1 [PiB, [N-Methyl-^11C]2-(4′-methylaminophenyl)-6-hydroxybenzothiazole]",SUVmax,"meningiomas; 2.0 cm thick meningioma, focused irradiation 1 month prior to PiB PET/CT",3.6
same,SUVmax range,meningiomas; [2],1.4-3.6
same,average SUVmax (by body weight),meningiomas; [2],2.2
same,uptake on PET/CT,"meningiomas; Example 1, one of seven presumed meningiomas, small size (~4 mm thick)",some uptake
same,uptake on PET/CT,"meningiomas; Example 1, six of seven presumed meningiomas, 241 patient database",intense uptake
same,uptake on PET/CT,"meningiomas; Example 2, recurrent orbital meningioma and falx meningioma in one patient",avid uptake
same,uptake on PET/CT,"meningiomas; Example 2, total of ten presumed meningiomas",show uptake
same,repeat imaging result,"meningiomas; Example 3, one patient imaged two times, many months in between",the same positive results
same,uptake on PET/CT,"meningiomas; Example 3, thirteen out of thirteen presumed meningiomas >5 mm within field of view",positive uptake
same,uptake on PET/CT,"meningiomas; Example 3, three non-diagnostic presumed meningiomas",some positive uptake
same,repeat imaging SUVmax of meningioma,"meningiomas; Example 4, two patients imaged with PiB PET/CT more than once",stable or increasing SUVmax
same,activity at the meningioma on PET/CT,"meningiomas; FIG. 1, Patient #1, right tentorium cerebelli mass",intense activity
same,activity at the meningioma on PET/CT,"meningiomas; FIG. 2, Patient #4, tuberculum sellae and planum sphenoidale mass",intense activity
same,SUVmax,"meningiomas; FIG. 3, 2.6 cm thick meningioma of the right tentorium",2.8
same,SUVmax,"meningiomas; FIG. 4 meningioma, Panels A-C",2.8
same,SUVmax,"meningiomas; FIG. 4 meningioma, panels G-I",3.6
same,SUVmax,"meningiomas; FIG. 5 Panel A, sella/supracellar region meningioma",1.7
same,SUVmax,"meningiomas; FIG. 5 Panel C, internal auditory canal meningioma",1.9
same,SUVmax,"meningiomas; FIG. 5 Panel E, lateral ventricle meningioma",2.1
same,SUVmax,"meningiomas; FIG. 5 Panel G, post-surgical meningioma recurrence",1.5
same,PiB PET/CT result,meningiomas; all 16 meningiomas identified by strict imaging criteria,PiB activity greater than normal adjacent tissues; also recorded: clearly diagnostically positive
same,amount of harmful radiation to the patient,meningiomas; injection and PET/CT imaging,within acceptable limits for diagnostic purposes
same,uptake on PET/CT,"non-meningioma tumors; Example 1, other tumors",little to no uptake
same,uptake on PET/CT,"non-meningioma tumors; Example 1, presumed extracranial schwannoma",no uptake
same,uptake on PET/CT,"non-meningioma tumors; Example 3, 25 types of tumors and non-neoplastic lesions incl. schwannoma, hamartoma, ependymoma, pituitary adenoma",only background uptake or no uptake
same,SUVmax,non-meningioma tumors; FIG. 4 melanoma metastasis,0.9
same,SUVmax,non-meningioma tumors; FIG. 4 small cell lung cancer metastasis,1.1
same,SUVmax,"non-meningioma tumors; FIG. 5 Panel B, pituitary macroadenoma",0.9
same,SUVmax,"non-meningioma tumors; FIG. 5 Panel D, schwannoma",0.8
same,SUVmax,"non-meningioma tumors; FIG. 5 Panel F, ependymoma",0.4
same,SUVmax,"non-meningioma tumors; FIG. 5 Panel H, postoperative changes/scarring",0.6
same,PiB PET/CT result,"non-meningioma tumors; all non-meningioma intracranial tumors (metastases, pituitary macroadenomas, schwannomas, ependymoma)",PiB activity equal or less than normal adjacent tissue; also recorded: negative
same,SUVmax,non-meningioma tumors; all non-meningioma intracranial tumors identified,≤ 1.1
same,SUVmax,"non-meningioma tumors; bony lesions (hemangiomas, fibrous dysplasia, hyperostosis frontalis, osteoma)",< 1.0
same,SUVmax,"non-meningioma tumors; extra-cranial tumors (sinus polyps, mucus retention cysts, mucocele, Warthin's tumors, inverted papilloma)",< 1.2
same,PiB PET/CT result,"non-meningioma tumors; intracranial metastases (melanoma, small cell lung cancer)",negative with low activity
same,PiB activity,"non-meningioma tumors; non-tumorous lesions (strokes, arachnoid cysts, multiple sclerosis lesions)",only trace PiB activity
same,SUVmax,"non-meningioma tumors; vascular lesions (aneurysms, telangiectasias, cavernomas, venous angiomas)",≤ 1.2
same,fluorescent staining of meningioma tissue,[1],stained brightly positive; also recorded: unique staining pattern
same,fluorescent staining of meningioma tissue,[1]; listed as Formula (V),accumulate
same,location of staining within meningioma cells,[1]; tissue sections,within the nucleus of the cells of the meningiomas
